Measured values as given in ChEMBL document CHEMBL1909046, “DrugMatrix in vitro pharmacology data”.

Key:
[1] = target: Beta-2 adrenergic receptor (Homo sapiens, UniProt P07550); experiment: DRUGMATRIX: Adrenergic beta2 radioligand binding (ligand: [3H] CGP-12177); format: cell membranes, Membrane; conditions: cho; Not Active = under 50% inhibition at 10 µM
[2] = target: C-C chemokine receptor type 2 (Homo sapiens, UniProt P41597); format: cell membranes, CHO-K1, Membrane; conditions: cho-k1; further: in other assays of this panel Not Active means under 50% inhibition at 10 µM
Progesterone receptor = target: T1, Progesterone receptor (Bos taurus, UniProt Q690N0); experiment: DRUGMATRIX: Progesterone radioligand binding (ligand: [3H] R-5020); format: tissue-based, Uterus; conditions: Not Active = under 50% inhibition at 10 µM
T1 sequence (Q690N0 whole entry): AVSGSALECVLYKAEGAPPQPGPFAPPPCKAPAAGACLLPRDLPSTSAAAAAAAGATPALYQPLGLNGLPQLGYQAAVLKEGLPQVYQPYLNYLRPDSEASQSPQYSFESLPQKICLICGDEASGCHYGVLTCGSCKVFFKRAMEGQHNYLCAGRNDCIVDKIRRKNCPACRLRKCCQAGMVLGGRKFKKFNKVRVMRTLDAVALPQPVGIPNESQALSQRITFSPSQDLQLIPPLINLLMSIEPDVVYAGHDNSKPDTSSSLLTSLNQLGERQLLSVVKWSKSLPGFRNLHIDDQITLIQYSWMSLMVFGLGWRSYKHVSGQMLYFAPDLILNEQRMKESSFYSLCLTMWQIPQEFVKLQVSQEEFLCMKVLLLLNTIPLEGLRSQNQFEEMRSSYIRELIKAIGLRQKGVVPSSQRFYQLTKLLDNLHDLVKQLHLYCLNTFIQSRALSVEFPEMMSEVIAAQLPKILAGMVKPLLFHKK

[3] = DRUGMATRIX: Potassium Channel [KATP] radioligand binding (ligand: [3H] Glyburide); format: cell membranes, Membrane; conditions: hit-t15; Not Active = under 50% inhibition at 10 µM
Cytochrome P450 2C19 = Cytochrome P450 2C19 (Homo sapiens, UniProt P33261); conditions: bti-tn-5b1-4; further: in other assays of this panel Not Active means under 50% inhibition at 10 µM
Cytochrome P450 2C9 = Cytochrome P450 2C9 (Homo sapiens, UniProt P11712); conditions: bti-tn-5b1-4; further: in other assays of this panel Not Active means under 50% inhibition at 10 µM
Leukotriene C4 synthase = target: T2, Leukotriene C4 synthase (Cavia porcellus, UniProt A6XA80); format: tissue-based, Lung;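 further: enzyme inhibition assay of leukotriene C4 synthase, using LTA4 as the substrate; in other assays of this panel Not Active means under 50% inhibition at 10 µM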
T2 sequence (A6XA80 whole entry): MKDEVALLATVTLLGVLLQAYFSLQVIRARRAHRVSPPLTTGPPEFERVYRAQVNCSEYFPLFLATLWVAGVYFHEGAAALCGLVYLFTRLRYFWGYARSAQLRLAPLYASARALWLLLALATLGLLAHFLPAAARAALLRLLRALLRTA

[4] = target: T3, Alpha-2A adrenergic receptor (Homo sapiens, UniProt P08913); format: cell membranes, Sf9, Membrane; conditions: sf9; further: in other assays of this panel Not Active means under 50% inhibition at 10 µM
T3 sequence (P08913 whole entry): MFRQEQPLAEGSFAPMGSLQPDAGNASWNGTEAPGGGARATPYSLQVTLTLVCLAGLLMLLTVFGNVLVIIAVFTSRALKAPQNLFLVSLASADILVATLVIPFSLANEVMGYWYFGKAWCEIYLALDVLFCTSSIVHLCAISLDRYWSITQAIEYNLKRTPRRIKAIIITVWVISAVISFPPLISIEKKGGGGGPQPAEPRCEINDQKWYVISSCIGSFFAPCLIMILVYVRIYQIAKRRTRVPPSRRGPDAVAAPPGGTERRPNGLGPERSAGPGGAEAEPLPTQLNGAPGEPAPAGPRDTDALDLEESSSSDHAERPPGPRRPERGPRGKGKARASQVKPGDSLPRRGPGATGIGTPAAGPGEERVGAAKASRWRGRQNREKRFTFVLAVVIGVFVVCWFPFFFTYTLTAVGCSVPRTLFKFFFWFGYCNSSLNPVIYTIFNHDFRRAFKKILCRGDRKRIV

[5] = target: Protein phosphatase 3 catalytic subunit alpha (Homo sapiens, UniProt Q08209); parameters: species or system Escherichia coli
[6] = target: Mitogen-activated protein kinase 14 (Homo sapiens, UniProt Q16539); parameters: species or system Escherichia coli
Melanocortin receptor 3 = Melanocortin receptor 3 (Homo sapiens, UniProt P41968); format: cell membranes, Membrane; conditions: hek293; further: in other assays of this panel Not Active means under 50% inhibition at 10 µM
Melanocortin receptor 3, sequence (P41968 whole entry): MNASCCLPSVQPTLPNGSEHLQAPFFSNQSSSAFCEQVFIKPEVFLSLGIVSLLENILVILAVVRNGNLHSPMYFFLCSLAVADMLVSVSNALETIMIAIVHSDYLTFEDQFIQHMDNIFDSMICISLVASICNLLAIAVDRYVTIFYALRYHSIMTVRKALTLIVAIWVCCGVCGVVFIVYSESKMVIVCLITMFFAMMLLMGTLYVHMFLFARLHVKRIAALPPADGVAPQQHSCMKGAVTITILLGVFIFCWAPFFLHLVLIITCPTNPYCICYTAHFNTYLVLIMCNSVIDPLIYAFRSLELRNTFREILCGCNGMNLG

C-C chemokine receptor type 2, sequence (P41597 whole entry): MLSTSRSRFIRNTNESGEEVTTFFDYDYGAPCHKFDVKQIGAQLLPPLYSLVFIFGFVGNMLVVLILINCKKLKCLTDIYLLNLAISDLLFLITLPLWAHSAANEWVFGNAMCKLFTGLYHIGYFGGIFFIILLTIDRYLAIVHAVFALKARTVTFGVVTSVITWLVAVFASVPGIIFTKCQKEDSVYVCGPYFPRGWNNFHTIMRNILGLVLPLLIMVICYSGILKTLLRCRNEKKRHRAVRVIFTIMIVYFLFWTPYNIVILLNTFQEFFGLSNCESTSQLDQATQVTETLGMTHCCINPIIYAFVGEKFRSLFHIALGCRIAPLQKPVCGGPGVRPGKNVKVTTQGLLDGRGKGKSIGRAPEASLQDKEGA
Cytochrome P450 2C19, sequence (P33261 whole entry): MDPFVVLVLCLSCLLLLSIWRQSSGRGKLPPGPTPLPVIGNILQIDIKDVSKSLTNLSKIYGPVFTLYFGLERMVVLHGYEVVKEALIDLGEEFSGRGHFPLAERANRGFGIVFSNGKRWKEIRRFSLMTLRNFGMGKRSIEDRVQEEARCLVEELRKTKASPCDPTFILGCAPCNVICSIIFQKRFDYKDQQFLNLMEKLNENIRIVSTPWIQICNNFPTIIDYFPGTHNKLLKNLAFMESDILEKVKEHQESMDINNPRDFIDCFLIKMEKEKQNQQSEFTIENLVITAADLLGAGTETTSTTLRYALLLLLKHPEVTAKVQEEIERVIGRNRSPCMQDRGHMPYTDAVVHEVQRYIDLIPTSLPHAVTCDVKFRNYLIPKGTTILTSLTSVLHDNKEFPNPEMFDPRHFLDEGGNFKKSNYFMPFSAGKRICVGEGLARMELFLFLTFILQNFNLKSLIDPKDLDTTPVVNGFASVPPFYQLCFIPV
Beta-2 adrenergic receptor, sequence (P07550 whole entry): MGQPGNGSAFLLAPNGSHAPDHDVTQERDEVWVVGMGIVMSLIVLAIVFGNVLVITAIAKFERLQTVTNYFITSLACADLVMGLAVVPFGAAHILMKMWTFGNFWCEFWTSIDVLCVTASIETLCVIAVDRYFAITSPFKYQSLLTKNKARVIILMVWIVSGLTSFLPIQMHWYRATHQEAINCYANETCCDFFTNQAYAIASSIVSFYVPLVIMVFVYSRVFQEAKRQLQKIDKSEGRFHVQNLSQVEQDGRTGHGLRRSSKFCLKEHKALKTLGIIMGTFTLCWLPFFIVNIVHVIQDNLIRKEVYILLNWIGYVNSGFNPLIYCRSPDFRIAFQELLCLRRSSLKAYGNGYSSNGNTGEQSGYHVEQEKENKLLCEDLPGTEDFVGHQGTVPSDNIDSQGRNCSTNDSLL
Cytochrome P450 2C9, sequence (P11712 whole entry): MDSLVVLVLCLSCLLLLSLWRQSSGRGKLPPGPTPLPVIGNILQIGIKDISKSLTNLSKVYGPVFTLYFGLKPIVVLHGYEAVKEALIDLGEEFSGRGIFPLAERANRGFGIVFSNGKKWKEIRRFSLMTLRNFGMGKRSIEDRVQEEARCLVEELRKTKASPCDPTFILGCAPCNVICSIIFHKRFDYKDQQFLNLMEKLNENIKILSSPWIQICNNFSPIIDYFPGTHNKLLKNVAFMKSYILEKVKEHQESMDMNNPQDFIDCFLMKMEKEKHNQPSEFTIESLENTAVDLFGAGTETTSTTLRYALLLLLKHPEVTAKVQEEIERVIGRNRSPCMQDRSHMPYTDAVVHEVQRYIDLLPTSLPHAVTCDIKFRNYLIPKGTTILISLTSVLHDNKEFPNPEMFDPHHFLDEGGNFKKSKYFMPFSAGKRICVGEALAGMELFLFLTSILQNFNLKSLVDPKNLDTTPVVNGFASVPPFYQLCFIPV
Mitogen-activated protein kinase 14, sequence (Q16539 whole entry): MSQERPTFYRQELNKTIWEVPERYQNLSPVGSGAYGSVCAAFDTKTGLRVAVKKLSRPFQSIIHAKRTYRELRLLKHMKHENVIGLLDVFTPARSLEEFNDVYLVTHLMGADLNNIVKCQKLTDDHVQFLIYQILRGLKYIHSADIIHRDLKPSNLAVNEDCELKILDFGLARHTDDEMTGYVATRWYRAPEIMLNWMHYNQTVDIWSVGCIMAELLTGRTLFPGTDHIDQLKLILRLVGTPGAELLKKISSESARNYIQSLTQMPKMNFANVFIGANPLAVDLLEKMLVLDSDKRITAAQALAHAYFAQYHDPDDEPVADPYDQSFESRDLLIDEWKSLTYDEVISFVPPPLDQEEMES

CC1=C(CC(=O)O)c2cc(F)ccc2/C1=C\c1ccc([S+](C)[O-])cc1 (centres undefined)
Not Active: IC50 [1] | IC50 [2] | IC50 (Progesterone receptor) | IC50 [3] | Ki [3] | IC50 (Cytochrome P450 2C19) | Ki (Cytochrome P450 2C19) | IC50 (Cytochrome P450 2C9) | Ki (Cytochrome P450 2C9) | IC50 (Leukotriene C4 synthase) | IC50 [4] | IC50 [5] | IC50 [6] | IC50 (Melanocortin receptor 3)

N[C@H](CSC(=S)NCc1ccccc1)C(=O)O
Not Active: IC50 [1] | IC50 [2] | IC50 (Progesterone receptor) | IC50 [3] | Ki [3] | IC50 (Cytochrome P450 2C19) | Ki (Cytochrome P450 2C19) | IC50 (Cytochrome P450 2C9) | Ki (Cytochrome P450 2C9) | IC50 (Leukotriene C4 synthase) | IC50 [4] | IC50 [5] | IC50 [6] | IC50 (Melanocortin receptor 3)

CC(=O)N[C@@H]1[C@H](Oc2c3cc4cc2Oc2ccc(cc2Cl)[C@@H](O[C@@H]2O[C@@H](CO)[C@@H](O)[C@H](O)[C@@H]2NC(C)=O)[C@@H]2NC(=O)[C@H](NC(=O)[C@@H]4NC(=O)[C@H]4NC(=O)[C@@H](Cc5ccc(c(Cl)c5)O3)NC(=O)[C@H](N)c3ccc(O)c(c3)Oc3cc(O)cc4c3)c3ccc(O)c(c3)-c3c(O[C@H]4O[C@H](CO)[C@@H](O)[C@@H](O)[C@@H]4O)cc(O)cc3[C@@H](C(=O)O)NC2=O)O[C@@H](CO)[C@@H](O)[C@@H]1O
Not Active: IC50 [1] | IC50 [2] | IC50 (Progesterone receptor) | IC50 [3] | Ki [3] | IC50 (Cytochrome P450 2C19) | Ki (Cytochrome P450 2C19) | IC50 (Cytochrome P450 2C9) | Ki (Cytochrome P450 2C9) | IC50 (Leukotriene C4 synthase) | IC50 [4] | IC50 [5] | IC50 [6] | IC50 (Melanocortin receptor 3)

COCCCOc1ccnc(C[S+]([O-])c2nc3ccccc3[nH]2)c1C (centres undefined) [RABEPRAZOLE]
Not Active: IC50 [1] | IC50 [2] | IC50 (Progesterone receptor) | IC50 [3] | Ki [3] | IC50 (Cytochrome P450 2C19) | Ki (Cytochrome P450 2C19) | IC50 (Cytochrome P450 2C9) | Ki (Cytochrome P450 2C9) | IC50 (Leukotriene C4 synthase) | IC50 [4] | IC50 [5] | IC50 [6] | IC50 (Melanocortin receptor 3)

CNC(=C[N+](=O)[O-])NCCSCc1ccc(CN(C)C)o1 [RANITIDINE]
Not Active: IC50 [1] | IC50 [2] | IC50 (Progesterone receptor) | IC50 [3] | Ki [3] | IC50 (Cytochrome P450 2C19) | Ki (Cytochrome P450 2C19) | IC50 (Cytochrome P450 2C9) | Ki (Cytochrome P450 2C9) | IC50 (Leukotriene C4 synthase) | IC50 [4] | IC50 [5] | IC50 [6] | IC50 (Melanocortin receptor 3)

CO[C@H]1/C=C/O[C@@]2(C)Oc3c(C)c(O)c4c(c3C2=O)C2=NC3(CCN(CC(C)C)CC3)NC2=C(NC(=O)/C(C)=C\C=C\[C@H](C)[C@H](O)[C@@H](C)[C@@H](O)[C@@H](C)[C@H](OC(C)=O)[C@@H]1C)C4=O [RIFABUTIN]
Not Active: IC50 [1] | IC50 [2] | IC50 (Progesterone receptor) | IC50 [3] | Ki [3] | IC50 (Cytochrome P450 2C19) | Ki (Cytochrome P450 2C19) | IC50 (Cytochrome P450 2C9) | Ki (Cytochrome P450 2C9) | IC50 (Leukotriene C4 synthase) | IC50 [4] | IC50 [5] | IC50 [6] | IC50 (Melanocortin receptor 3)

CC(C)CC(N(C)C)C1(c2ccc(Cl)cc2)CCC1 (centres undefined) [SIBUTRAMINE]
Not Active: IC50 [1] | IC50 [2] | IC50 (Progesterone receptor) | IC50 [3] | Ki [3] | IC50 (Cytochrome P450 2C19) | Ki (Cytochrome P450 2C19) | IC50 (Cytochrome P450 2C9) | Ki (Cytochrome P450 2C9) | IC50 (Leukotriene C4 synthase) | IC50 [4] | IC50 [5] | IC50 [6] | IC50 (Melanocortin receptor 3)

[H]/N=C(/N)N[C@H]1[C@H](O)[C@@H](O)[C@H](O[C@@H]2O[C@@H](C)[C@](O)(C=O)[C@H]2O[C@@H]2O[C@@H](CO)[C@H](O)[C@@H](O)[C@@H]2NC)[C@@H](N/C(N)=N\[H])[C@@H]1O [STREPTOMYCIN]
Not Active: IC50 [1] | IC50 [2] | IC50 (Progesterone receptor) | IC50 [3] | Ki [3] | IC50 (Cytochrome P450 2C19) | Ki (Cytochrome P450 2C19) | IC50 (Cytochrome P450 2C9) | Ki (Cytochrome P450 2C9) | IC50 (Leukotriene C4 synthase) | IC50 [4] | IC50 [5] | IC50 [6] | IC50 (Melanocortin receptor 3)

Cc1cc(C)nc(NS(=O)(=O)c2ccc(N)cc2)n1 [SULFAMETHAZINE]
Not Active: IC50 [1] | Ki [2] | IC50 (Progesterone receptor) | IC50 [3] | Ki [3] | IC50 (Cytochrome P450 2C19) | Ki (Cytochrome P450 2C19) | IC50 (Cytochrome P450 2C9) | Ki (Cytochrome P450 2C9) | IC50 (Leukotriene C4 synthase) | IC50 [4] | IC50 [5] | IC50 [6] | IC50 (Melanocortin receptor 3)

C[C@]1(Cn2ccnn2)[C@H](C(=O)O)N2C(=O)C[C@H]2S1(=O)=O [TAZOBACTAM]
Not Active: IC50 [1] | IC50 [2] | IC50 (Progesterone receptor) | IC50 [3] | Ki [3] | IC50 (Cytochrome P450 2C19) | Ki (Cytochrome P450 2C19) | IC50 (Cytochrome P450 2C9) | Ki (Cytochrome P450 2C9) | IC50 (Leukotriene C4 synthase) | IC50 [4] | IC50 [5] | IC50 [6] | IC50 (Melanocortin receptor 3)

CN1C(C(=O)Nc2ccccn2)=C(O)c2sccc2S1(=O)=O [TENOXICAM]
Not Active: IC50 [1] | IC50 [2] | IC50 (Progesterone receptor) | IC50 [3] | Ki [3] | IC50 (Cytochrome P450 2C19) | Ki (Cytochrome P450 2C19) | IC50 (Cytochrome P450 2C9) | Ki (Cytochrome P450 2C9) | IC50 (Leukotriene C4 synthase) | IC50 [4] | IC50 [5] | IC50 [6] | IC50 (Melanocortin receptor 3)
